Data on five molecules can be found in PubChem BioAssay AID2060342 (Molecular Pharmacology Branch, DTP, NCI, 2025).

This assay has as its system 171881-019-R-J1-PDC multicell spheroid viability. The assay can be described thus: Anticancer human tumor 171881-019-R-J1-PDC patient-derived invasive breast carcinoma cell line growth inhibition [IpAb]. To be noted: for viability, T/C: stronger effect = lower value. The method in brief: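 Multi-cell spheroids of 60% tumour cells, 25% HUVEC and 15% MSC in ultra-low-attachment U-bottom wells, treated with agents combined with ipatasertib or abemaciclib. Half-log ranges top out near clinical Cmax, or 10 microM when Cmax is unknown.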

Setting [1] is: curve of first compound, second compound 0.1 µM.
Where [2] appears, read: curve of first compound, second compound 0.316 µM.
Where [3] appears, read: curve of first compound, second compound 1 µM.
Setting [4] is: second compound 0.1 µM, first compound 0.000316 µM.
Where [5] appears, read: second compound 0.1 µM, first compound 0.001 µM.
Setting [6] is: second compound 0.1 µM, first compound 0.00316 µM.
Where [7] appears, read: second compound 0.1 µM, first compound 0.01 µM.
[8] abbreviates: second compound 0.1 µM, first compound 0.0316 µM.
The mark [9] stands for this setting: second compound 0.1 µM, first compound 0.1 µM.
Setting [10] is: second compound 0.316 µM, first compound 0.000316 µM.
Setting [11] is: second compound 0.316 µM, first compound 0.001 µM.
The mark [12] stands for this setting: second compound 0.316 µM, first compound 0.00316 µM.
Where [13] appears, read: second compound 0.316 µM, first compound 0.01 µM.
Setting [14] is: second compound 0.316 µM, first compound 0.0316 µM.
The mark [15] stands for this setting: second compound 0.316 µM, first compound 0.1 µM.
[16] abbreviates: second compound 1 µM, first compound 0.000316 µM.
Setting [17] is: second compound 1 µM, first compound 0.001 µM.
[18] abbreviates: second compound 1 µM, first compound 0.00316 µM.
The mark [19] stands for this setting: second compound 1 µM, first compound 0.01 µM.
Where [20] appears, read: second compound 1 µM, first compound 0.0316 µM.
Where [21] appears, read: second compound 1 µM, first compound 0.1 µM.
Setting [22] is: curve of first compound, second compound 3.16 µM.
The mark [23] stands for this setting: curve of first compound, second compound 10 µM.
The mark [24] stands for this setting: second compound 3.16 µM, first compound 0.0316 µM.
Where [25] appears, read: second compound 3.16 µM, first compound 0.1 µM.
Setting [26] is: second compound 10 µM, first compound 0.0316 µM.
The mark [27] stands for this setting: second compound 10 µM, first compound 0.1 µM.

Where “and” joins values, the source holds several entries; their conditions need not be identical. Equal values may be shown once. A value given as a limit tells only on which side of the number the result lay.
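Note: spheroids exposed to the agents for seven days before readout.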

As to `CC(C)n1nc(-c2ccc3oc(N)nc3c2)c2c(N)ncnc21` + CCN1CCN(Cc2ccc(Nc3ncc(F)c(-c4cc(F)c5nc(C)n(C(C)C)c5c4)n3)nc2)CC1, the IC50 (in general, the concentration needed to halve the response being measured) was found to be 5.63 nM (curve of first compound, second compound 0.01 µM); 5.98 nM (curve of first compound, second compound 0.0316 µM); 5.6 nM under setting [1]; 6.25 nM under setting [2]; 9.54 nM under setting [3]. The viability, T/C (as a rule, the ratio of treated to control) reads like this: (second compound 0.01 µM, first compound 0.000316 µM) 99%; (second compound 0.01 µM, first compound 0.001 µM) 102%; (second compound 0.01 µM, first compound 0.00316 µM) 73.9%; (second compound 0.01 µM, first compound 0.01 µM) 25.7%; (second compound 0.01 µM, first compound 0.0316 µM) 4.34%; (second compound 0.01 µM, first compound 0.1 µM) 2.21%. For the same molecule, the viability, T/C (second compound 0.0316 µM, first compound 0.000316 µM) was 97.9%; the viability, T/C (second compound 0.0316 µM, first compound 0.001 µM) was 112%; the viability, T/C (second compound 0.0316 µM, first compound 0.00316 µM) was 80.5%; the viability, T/C (second compound 0.0316 µM, first compound 0.01 µM) is 24.8%; the viability, T/C (second compound 0.0316 µM, first compound 0.0316 µM) was 5.1%; the viability, T/C (second compound 0.0316 µM, first compound 0.1 µM) was 2.53%. Moreover, the viability, T/C runs as follows: under setting [4], 114%; under setting [5], 103%; under setting [6], 75.8%; under setting [7], 24.3%; under setting [8], 5.52%; under setting [9], 2.76%. The viability, T/C under setting [10] was 131%; the viability, T/C under setting [11] is 106%; the viability, T/C under setting [12] was 81.4%; the viability, T/C under setting [13] is 28.5%; the viability, T/C under setting [14] was 9.75%; the viability, T/C under setting [15] is 3.47%. Moreover, the viability, T/C runs as follows: under setting [16], 140%; under setting [17], 125%; under setting [18], 89.8%; under setting [19], 48.6%; under setting [20], 21.4%; under setting [21], 10.4%.

In the case of `COc1c(OCCCN2CCOCC2)ccc2c3n(c(=NC(=O)c4cnc(N)nc4)nc12)CCN3`, the viability, T/C runs as follows: (compound 0.00316 µM) 109% and 115%; (compound 0.01 µM) 65.8% and 77.7%; (compound 0.0316 µM) 17.4% and 33.4%; (compound 0.1 µM) 4.32% and 7.03%; (compound 0.316 µM) 1% and 1.49%; (compound 1 µM) 1.51% and 1.79%. Besides, the IC50 (curve of compound) was 14.6 nM and 20.2 nM.

For `Cn1nccc1Nc1nccc(-c2ccn(C(CO)c3ccc(Cl)c(F)c3)c(=O)c2)n1` (centres undefined), the viability, T/C reads like this: (compound 0.0316 µM) 107% and 117%; (compound 0.1 µM) 108% and 112%; (compound 0.316 µM) 77.1% and 79%; (compound 1 µM) 39.2% and 41.8%; (compound 3.16 µM) 22.2% and 22.1%; (compound 10 µM) 19.1% and 18.8%. In addition, the IC50 (curve of compound) is 713 nM and 761 nM.

In the case of `C=CC(=O)N1CCN(c2nc(=O)n(-c3c(C)ccnc3C(C)C)c3nc(-c4c(O)cccc4F)c(F)cc23)C(C)C1` (centres undefined) + CC(C)NCC(C(=O)N1CCN(c2ncnc3c2C(C)CC3O)CC1)c1ccc(Cl)cc1, the IC50 was 5260 nM under setting [1]; 1830 nM under setting [2]; less than 31.6 nM under setting [3]; less than 31.6 nM under setting [22]; less than 31.6 nM under setting [23]. The viability, T/C was 102% under setting [8]; 87.7% under setting [9]; 90% (second compound 0.1 µM, first compound 0.316 µM); 95.9% (second compound 0.1 µM, first compound 1 µM); 74.2% (second compound 0.1 µM, first compound 3.16 µM); 19.5% (second compound 0.1 µM, first compound 10 µM). Also, the viability, T/C under setting [14] was 74.1%; the viability, T/C under setting [15] was 67%; the viability, T/C (second compound 0.316 µM, first compound 0.316 µM) was 69%; the viability, T/C (second compound 0.316 µM, first compound 1 µM) is 64.7%; the viability, T/C (second compound 0.316 µM, first compound 3.16 µM) is 36.8%; the viability, T/C (second compound 0.316 µM, first compound 10 µM) was 13.2%. For the same molecule, the viability, T/C is 24.6% under setting [20]; 26.6% under setting [21]; 25.9% (second compound 1 µM, first compound 0.316 µM); 22.1% (second compound 1 µM, first compound 1 µM); 17.3% (second compound 1 µM, first compound 3.16 µM); 7.56% (second compound 1 µM, first compound 10 µM). Further, the viability, T/C was 10.2% under setting [24]; 11.7% under setting [25]; 10.2% (second compound 3.16 µM, first compound 0.316 µM); 11.5% (second compound 3.16 µM, first compound 1 µM); 8.09% (second compound 3.16 µM, first compound 3.16 µM); 4.11% (second compound 3.16 µM, first compound 10 µM). Moreover, the viability, T/C runs as follows: under setting [26], 5.17%; under setting [27], 5.24%; (second compound 10 µM, first compound 0.316 µM) 6.38%; (second compound 10 µM, first compound 1 µM) 5.65%; (second compound 10 µM, first compound 3.16 µM) 5.64%; (second compound 10 µM, first compound 10 µM) 3.86%.

`Cn1ncnc1[C@H]1c2n[nH]c(=O)c3cc(F)cc(c23)N[C@@H]1c1ccc(F)cc1` + CC(C)NCC(C(=O)N1CCN(c2ncnc3c2C(C)CC3O)CC1)c1ccc(Cl)cc1: the IC50 under setting [1] is more than 100 nM; the IC50 under setting [2] was more than 100 nM; the IC50 under setting [3] is less than 0.316 nM; the IC50 under setting [22] was less than 0.316 nM; the IC50 under setting [23] was less than 0.316 nM. Further, the viability, T/C runs as follows: under setting [4], 102%; under setting [5], 114%; under setting [6], 121%; under setting [7], 108%; under setting [8], 108%; under setting [9], 101%. For the same molecule, the viability, T/C by setting is: under setting [10], 74.8%; under setting [11], 75.1%; under setting [12], 75.6%; under setting [13], 72.6%; under setting [14], 65.8%; under setting [15], 60.8%. Besides, the viability, T/C under setting [16] is 27.4%; the viability, T/C under setting [17] is 24.4%; the viability, T/C under setting [18] was 20.7%; the viability, T/C under setting [19] is 24.6%; the viability, T/C under setting [20] is 20.3%; the viability, T/C under setting [21] was 17.1%. Also, the viability, T/C was 10.7% (second compound 3.16 µM, first compound 0.000316 µM); 12.5% (second compound 3.16 µM, first compound 0.001 µM); 8.98% (second compound 3.16 µM, first compound 0.00316 µM); 10% (second compound 3.16 µM, first compound 0.01 µM); 8.89% under setting [24]; 7.64% under setting [25]. The viability, T/C runs as follows: (second compound 10 µM, first compound 0.000316 µM) 5.76%; (second compound 10 µM, first compound 0.001 µM) 5.36%; (second compound 10 µM, first compound 0.00316 µM) 5.17%; (second compound 10 µM, first compound 0.01 µM) 5.3%; under setting [26], 4.77%; under setting [27], 4.29%.
